For 15 molecules, Ki results are on record in publication PMC6010027, “Iodine-mediated one-pot intramolecular decarboxylation domino reaction for accessing functionalised 2-(1,3,4-oxadiazol-2-yl)anilines with carbonic anhydrase inhibitory action” (Journal of Enzyme Inhibition and Medicinal Chemistry, 2018).

Common to all, as to assay: stopped-flow CO2 hydrase assay
Assay type in all cases: biochemical

One test deals with T1, hCA IX (Homo sapiens, UniProt Q16790).
T1 construct: gene CA9; recombinant; transmembrane isoform
The text has this:
stopped-flow CO2 hydrase assay on hCA IX

Another test concerns the target T2, hCA I (Homo sapiens, UniProt P00915).
T2 construct: gene CA1; recombinant; cytosolic isoform
An excerpt:
stopped-flow CO2 hydrase assay on hCA I

A further test addresses T3, hCA II (Homo sapiens, UniProt P00918).
T3 construct: gene CA2; recombinant; cytosolic isoform
The text has this:
stopped-flow CO2 hydrase assay on hCA II

The next test concerns the target T4, hCA IV (Homo sapiens, UniProt P22748).
T4 construct: gene CA4; recombinant; membrane-anchored isoform
An excerpt:
stopped-flow CO2 hydrase assay on hCA IV

T4 sequence (P22748 19-284): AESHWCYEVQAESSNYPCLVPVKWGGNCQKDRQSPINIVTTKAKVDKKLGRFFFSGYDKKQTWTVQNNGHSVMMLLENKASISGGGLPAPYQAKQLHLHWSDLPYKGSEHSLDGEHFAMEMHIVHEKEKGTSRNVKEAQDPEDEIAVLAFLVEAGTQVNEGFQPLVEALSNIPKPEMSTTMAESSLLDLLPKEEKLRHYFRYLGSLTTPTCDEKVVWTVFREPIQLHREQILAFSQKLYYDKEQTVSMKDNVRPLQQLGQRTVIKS
T2 sequence (P00915 2-261): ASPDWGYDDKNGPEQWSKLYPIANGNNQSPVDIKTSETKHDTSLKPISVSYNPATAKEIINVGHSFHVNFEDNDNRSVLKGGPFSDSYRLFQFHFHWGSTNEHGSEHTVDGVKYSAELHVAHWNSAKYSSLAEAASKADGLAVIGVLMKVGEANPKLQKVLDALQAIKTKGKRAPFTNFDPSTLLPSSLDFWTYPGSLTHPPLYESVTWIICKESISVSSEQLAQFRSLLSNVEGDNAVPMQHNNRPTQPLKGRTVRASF

Consider `Cc1ccc(N)c(-c2nnc(-c3ccc(S(N)(=O)=O)cc3)o2)c1` [8b, 4-(5-(2-Amino-5-methylphenyl)-1,3,4-oxadiazol-2-yl)benzenesulfonamide], for which the inhibition constant (Ki) at hCA IX came to 1600 nM; on hCA I, 270 nM; at hCA II, 51.5 nM; at hCA IV, 5.61 µM.
The matching figures for `Nc1ccccc1-c1nnc(-c2ccc(S(N)(=O)=O)cc2)o1` [8a, 4-(5-(2-Aminophenyl)-1,3,4-oxadiazol-2-yl)benzenesulfonamide]: 1890 nM, 222 nM, 34.1 nM and 7.34 µM.
The matching figures for `Nc1c(Cl)cc(Cl)cc1-c1nnc(-c2ccc(S(N)(=O)=O)cc2)o1` [8i, 4-(5-(2-Amino-3,5-dichlorophenyl)-1,3,4-oxadiazol-2-yl)benzenesulfonamide]: 2740 nM, 813 nM, 46.4 nM and 6.78 µM.
The like results for `Nc1ccc(F)cc1-c1nnc(-c2cccc(S(N)(=O)=O)c2)o1` [8m, 3-(5-(2-Amino-5-fluorophenyl)-1,3,4-oxadiazol-2-yl)benzenesulfonamide] were, in that order, 2570 nM, 747 nM, 307 nM and 0.548 µM.
In the case of `Nc1ccc(OC(F)(F)F)cc1-c1nnc(-c2ccc(S(N)(=O)=O)cc2)o1` [8f, 4-(5-(2-Amino-5-(trifluoromethoxy)phenyl)-1,3,4-oxadiazol-2-yl)benzenesulfonamide], the Ki on hCA IX stood at 2450 nM; at hCA I, 710 nM; on hCA II, 93.2 nM; on hCA IV, 2.17 µM.
Regarding `Nc1ccc(OC(F)(F)F)cc1-c1nnc(-c2cccc(S(N)(=O)=O)c2)o1` [8n, 3-(5-(2-Amino-5-(trifluoromethoxy)phenyl)-1,3,4-oxadiazol-2-yl)benzenesulfonamide], the Ki on hCA IX was determined as 255 nM; on hCA I, 344 nM; at hCA II, 480 nM; at hCA IV, 9.43 µM.
In the case of `Nc1ccc(F)cc1-c1nnc(-c2ccc(S(N)(=O)=O)cc2)o1` [8d, 4-(5-(2-Amino-5-fluorophenyl)-1,3,4-oxadiazol-2-yl)benzenesulfonamide], the Ki worked out at 1600 nM at hCA IX, 736 nM on hCA I, 43.7 nM on hCA II and 6.33 µM at hCA IV.
The matching figures for `Cc1cc(C)c(N)c(-c2nnc(-c3ccc(S(N)(=O)=O)cc3)o2)c1` [8h, 4-(5-(2-Amino-3,5-dimethylphenyl)-1,3,4-oxadiazol-2-yl)benzenesulfonamide]: 2030 nM, 89.1 nM, 17.6 nM and 7.59 µM.
The matching figures for `Cc1ccc(N)c(-c2nnc(-c3cccc(S(N)(=O)=O)c3)o2)c1` [8k, 3-(5-(2-Amino-5-methylphenyl)-1,3,4-oxadiazol-2-yl)benzenesulfonamide]: 2960 nM, 5830 nM, 64.6 nM and 0.437 µM.
The like results for `Nc1c(F)cccc1-c1nnc(-c2ccc(S(N)(=O)=O)cc2)o1` [8g, 4-(5-(2-Amino-3-fluorophenyl)-1,3,4-oxadiazol-2-yl)benzenesulfonamide] were, in that order, 2270 nM, 81.4 nM, 6.4 nM and 2.02 µM.
Consider `Nc1c(F)cccc1-c1nnc(-c2cccc(S(N)(=O)=O)c2)o1` [8o, 3-(5-(2-Amino-3-fluorophenyl)-1,3,4-ovxadiazol-2-yl)benzenesulfonamide], for which the Ki was 140 nM on hCA IX, 731 nM on hCA I, 86.3 nM at hCA II and 0.521 µM at hCA IV.
The like results for `Nc1ccc(Cl)cc1-c1nnc(-c2ccc(S(N)(=O)=O)cc2)o1` [8e, 4-(5-(2-Amino-5-chlorophenyl)-1,3,4-oxadiazol-2-yl)benzenesulfonamide] were, in that order, 2370 nM, 3500 nM, 221 nM and 8.24 µM.
In the case of `COc1ccc(N)c(-c2nnc(-c3ccc(S(N)(=O)=O)cc3)o2)c1` [8c, 4-(5-(2-Amino-5-methoxyphenyl)-1,3,4-oxadiazol-2-yl)benzenesulfonamide], the Ki at hCA IX was found to be 282 nM; on hCA I, 321 nM; at hCA II it was 16.4 nM; on hCA IV, 5.92 µM.
The like results for `COc1ccc(N)c(-c2nnc(-c3cccc(S(N)(=O)=O)c3)o2)c1` [8l, 3-(5-(2-Amino-5-methoxyphenyl)-1,3,4-oxadiazol-2-yl)benzenesulfonamide] were, in that order, 2720 nM, 3510 nM, 516 nM and 0.588 µM.
The matching figures for `Nc1ccccc1-c1nnc(-c2cccc(S(N)(=O)=O)c2)o1` [8j, 3-(5-(2-Aminophenyl)-1,3,4-oxadiazol-2-yl)benzenesulfonamide]: 2920 nM, 3310 nM, 46.9 nM and 0.526 µM.

In general, Ki refers to the dissociation constant of the complex between target and ligand, obtained from inhibition or displacement.
